Results from the supplement of paper PMC13380429.

Experiments:
[1] = test system: HepG2; assay: cell viability relative to DMSO; higher = less toxic; conditions: 72 h
[2] = test system: Calu-3; assay: as above; conditions: 72 h
[3] = test system: Caco-2; assay: as above; conditions: 72 h
[4] = test system: U2OS; assay: as above; conditions: 72 h
[5] = test system: Vero E6; assay: as above; conditions: 72 h
[6] = test system: HepG2; assay: drug sensitivity score (DSS) for viability; higher = more toxic; extreme values may be limits of the assay; conditions: 72 h
[7] = test system: Calu-3; assay: as above; conditions: 72 h
[8] = test system: Caco-2; assay: as above; conditions: 72 h
[9] = test system: U2OS; assay: as above; conditions: 72 h
[10] = test system: Vero E6; assay: as above; conditions: 72 h
[11] = test system: A549-ACE2 infected with SARS-CoV-2; assay: cell count relative to DMSO; higher = less toxic; conditions: 24 h
[12] = test system: A549-ACE2; assay: drug-induced phospholipidosis relative to tamoxifen; higher = more phospholipidosis
[13] = test system: A549-ACE2 infected with SARS-CoV-2; assay: morphology score (similarity to uninfected cells); higher = more like uninfected cells; conditions: 24 h
[14] = test system: Calu-3; assay: relative viability EC50 (midpoint between 100% and the lowest measured viability); higher = less toxic; conditions: 72 h
[15] = test system: U2OS; assay: as above; conditions: 72 h
[16] = test system: Vero E6; assay: as above; conditions: 72 h
[17] = test system: A549-ACE2; assay: phospholipidosis EC50; higher = less potent phospholipidosis inducer
[18] = test system: A549-ACE2 infected with SARS-CoV-2; assay: SARS-CoV-2 infection rate relative to DMSO; higher = more infection; conditions: 24 h
[19] = test system: HepG2; assay: relative viability EC50 (midpoint between 100% and the lowest measured viability); higher = less toxic; conditions: 72 h
[20] = test system: Caco-2; assay: as above; conditions: 72 h

SMILES: C[C@@H](O[C@H]1OCCN(Cc2nn[nH]c2CN(C)C)[C@H]1c1ccc(F)cc1)c1cc(C(F)(F)F)cc(C(F)(F)F)c1
- cell viability ([1]; 1 nM): 90.8%
- cell viability ([1]; 10 nM): 91.5%
- cell viability ([1]; 100 nM): 87.5%
- cell viability ([1]; 1000 nM): 110%
- cell viability ([1]; 10000 nM): 69.1%
- cell viability ([2]; 1 nM): 93.6%
- cell viability ([2]; 10 nM): 93.9%
- cell viability ([2]; 100 nM): 91.8%
- cell viability ([2]; 1000 nM): 97.5%
- cell viability ([2]; 10000 nM): 75.1%
- cell viability ([3]; 1 nM): 97%
- cell viability ([3]; 10 nM): 94.6%
- cell viability ([3]; 100 nM): 99.9%
- cell viability ([3]; 1000 nM): 103%
- cell viability ([3]; 10000 nM): 70.7%
- cell viability ([4]; 1 nM): 98.8%
- cell viability ([4]; 10 nM): 96.9%
- cell viability ([4]; 100 nM): 105%
- cell viability ([4]; 1000 nM): 98.6%
- cell viability ([4]; 10000 nM): 75.9%
- cell viability ([5]; 1 nM): 91%
- cell viability ([5]; 10 nM): 102%
- cell viability ([5]; 100 nM): 95%
- cell viability ([5]; 1000 nM): 96.9%
- cell viability ([5]; 10000 nM): 82.8%
- drug sensitivity score [6]: 0.9
- drug sensitivity score [7]: 1.3
- drug sensitivity score [8]: 1.1
- drug sensitivity score [9]: 1.1
- drug sensitivity score [10]: 0.7
- cell count ([11]; 0.3 µM): 104%
- cell count ([11]; 3 µM): 107%
- cell count ([11]; 10 µM): 114%
- cell count ([11]; 30 µM): 96%
- drug-induced phospholipidosis ([12]; 0.3 µM, 24 h): 0.77%
- drug-induced phospholipidosis ([12]; 0.3 µM, 48 h): 1.56%
- drug-induced phospholipidosis ([12]; 0.3 µM, 72 h): 2.71%
- drug-induced phospholipidosis ([12]; 0.833333 µM, 24 h): 3.06%
- drug-induced phospholipidosis ([12]; 0.833333 µM, 48 h): 0.335%
- drug-induced phospholipidosis ([12]; 0.833333 µM, 72 h): 0.0731%
- drug-induced phospholipidosis ([12]; 3.33333 µM, 24 h): 53.9%
- drug-induced phospholipidosis ([12]; 3.33333 µM, 48 h): 38.1%
- drug-induced phospholipidosis ([12]; 3.33333 µM, 72 h): 32.7%
- drug-induced phospholipidosis ([12]; 6.66667 µM, 24 h): 92.5%
- drug-induced phospholipidosis ([12]; 6.66667 µM, 48 h): 83.7%
- drug-induced phospholipidosis ([12]; 6.66667 µM, 72 h): 80.6%
- drug-induced phospholipidosis ([12]; 10 µM, 24 h): 102%
- drug-induced phospholipidosis ([12]; 10 µM, 48 h): 91.7%
- drug-induced phospholipidosis ([12]; 10 µM, 72 h): 99.1%
- morphology score ([13]; 0.3 µM): 0.33
- morphology score ([13]; 3 µM): 0.54
- morphology score ([13]; 10 µM): 0.79
- morphology score ([13]; 30 µM): 0.29
- relative viability EC50 [14]: > 10 µM
- relative viability EC50 [15]: > 10 µM
- relative viability EC50 [16]: > 10 µM
- phospholipidosis EC50 ([17]; 24 h): 3.41 µM
- phospholipidosis EC50 ([17]; 48 h): 3.74 µM
- phospholipidosis EC50 ([17]; 72 h): 4.73 µM
- SARS-CoV-2 infection rate ([18]; 0.3 µM): 94%
- SARS-CoV-2 infection rate ([18]; 3 µM): 67%
- SARS-CoV-2 infection rate ([18]; 10 µM): 21%
- SARS-CoV-2 infection rate ([18]; 30 µM): 29%

SMILES: Nc1nc(NC[C@H]2CC[C@H](CNS(=O)(=O)c3cccc4ccccc34)CC2)nc2ccccc12
- cell viability ([1]; 1 nM): 98.2%
- cell viability ([1]; 10 nM): 99.6%
- cell viability ([1]; 100 nM): 101%
- cell viability ([1]; 1000 nM): 86.3%
- cell viability ([1]; 10000 nM): 0.8%
- cell viability ([2]; 1 nM): 89.3%
- cell viability ([2]; 10 nM): 95.8%
- cell viability ([2]; 100 nM): 98.8%
- cell viability ([2]; 1000 nM): 98.1%
- cell viability ([2]; 10000 nM): 0.9%
- cell viability ([3]; 1 nM): 102%
- cell viability ([3]; 10 nM): 97.4%
- cell viability ([3]; 100 nM): 93.8%
- cell viability ([3]; 1000 nM): 95%
- cell viability ([3]; 10000 nM): 12.7%
- cell viability ([4]; 1 nM): 101%
- cell viability ([4]; 10 nM): 101%
- cell viability ([4]; 100 nM): 98.5%
- cell viability ([4]; 1000 nM): 96.8%
- cell viability ([4]; 10000 nM): 3.6%
- cell viability ([5]; 1 nM): 97%
- cell viability ([5]; 10 nM): 95.8%
- cell viability ([5]; 100 nM): 99.9%
- cell viability ([5]; 1000 nM): 91.6%
- cell viability ([5]; 10000 nM): 4%
- drug sensitivity score [6]: 7.8
- drug sensitivity score [7]: 5.8
- drug sensitivity score [8]: 5.6
- drug sensitivity score [9]: 5.8
- drug sensitivity score [10]: 6.7
- cell count ([11]; 0.1 µM): 105%
- cell count ([11]; 0.3 µM): 101%
- cell count ([11]; 1 µM): 101%
- cell count ([11]; 3 µM): 123%
- drug-induced phospholipidosis ([12]; 0.3 µM, 24 h): 4.45%
- drug-induced phospholipidosis ([12]; 0.3 µM, 48 h): 5.61%
- drug-induced phospholipidosis ([12]; 0.3 µM, 72 h): 6.01%
- drug-induced phospholipidosis ([12]; 0.833333 µM, 24 h): 16.1%
- drug-induced phospholipidosis ([12]; 0.833333 µM, 48 h): 11.2%
- drug-induced phospholipidosis ([12]; 0.833333 µM, 72 h): 9.91%
- drug-induced phospholipidosis ([12]; 3.33333 µM, 24 h): 78.1%
- drug-induced phospholipidosis ([12]; 3.33333 µM, 48 h): 82%
- drug-induced phospholipidosis ([12]; 3.33333 µM, 72 h): 62.8%
- drug-induced phospholipidosis ([12]; 6.66667 µM, 24 h): 111%
- drug-induced phospholipidosis ([12]; 6.66667 µM, 48 h): 124%
- drug-induced phospholipidosis ([12]; 6.66667 µM, 72 h): 129%
- drug-induced phospholipidosis ([12]; 10 µM, 24 h): 51.3%
- drug-induced phospholipidosis ([12]; 30 µM, 24 h): 58.3%
- morphology score ([13]; 0.1 µM): 0.06
- morphology score ([13]; 0.3 µM): -0.01
- morphology score ([13]; 1 µM): 0.19
- morphology score ([13]; 3 µM): 0.63
- relative viability EC50 [19]: 2.06 µM
- relative viability EC50 [14]: 3.03 µM
- relative viability EC50 [20]: 2.71 µM
- relative viability EC50 [15]: 2.92 µM
- relative viability EC50 [16]: 2.44 µM
- phospholipidosis EC50 ([17]; 24 h): 1.03 µM
- phospholipidosis EC50 ([17]; 48 h): 3.12 µM
- phospholipidosis EC50 ([17]; 72 h): 6.11 µM
- SARS-CoV-2 infection rate ([18]; 0.1 µM): 101%
- SARS-CoV-2 infection rate ([18]; 0.3 µM): 95%
- SARS-CoV-2 infection rate ([18]; 1 µM): 90%
- SARS-CoV-2 infection rate ([18]; 3 µM): 12%

SMILES: CN1C2CCC1CC(OC(c1ccccc1)c1ccc(Cl)cc1)C2 (stereo not given) [3-CPMT]
- cell viability ([1]; 1 nM): 99.3%
- cell viability ([1]; 10 nM): 110%
- cell viability ([1]; 100 nM): 97.6%
- cell viability ([1]; 1000 nM): 98.6%
- cell viability ([1]; 10000 nM): 59.5%
- cell viability ([2]; 1 nM): 107%
- cell viability ([2]; 10 nM): 109%
- cell viability ([2]; 100 nM): 106%
- cell viability ([2]; 1000 nM): 91.3%
- cell viability ([2]; 10000 nM): 55.1%
- cell viability ([3]; 1 nM): 94.2%
- cell viability ([3]; 10 nM): 89.7%
- cell viability ([3]; 100 nM): 91.5%
- cell viability ([3]; 1000 nM): 94.9%
- cell viability ([3]; 10000 nM): 76.4%
- cell viability ([4]; 1 nM): 104%
- cell viability ([4]; 10 nM): 96.9%
- cell viability ([4]; 100 nM): 100%
- cell viability ([4]; 1000 nM): 97.1%
- cell viability ([4]; 10000 nM): 72.6%
- cell viability ([5]; 1 nM): 93.5%
- cell viability ([5]; 10 nM): 97.3%
- cell viability ([5]; 100 nM): 94.5%
- cell viability ([5]; 1000 nM): 96.6%
- cell viability ([5]; 10000 nM): 70.6%
- drug sensitivity score [6]: 2.2
- drug sensitivity score [7]: 3.7
- drug sensitivity score [8]: 1.3
- drug sensitivity score [9]: 1.6
- drug sensitivity score [10]: 1.8
- cell count ([11]; 0.1 µM): 105%
- cell count ([11]; 0.3 µM): 99%
- cell count ([11]; 1 µM): 116%
- cell count ([11]; 3 µM): 123%
- drug-induced phospholipidosis ([12]; 0.3 µM, 24 h): 4.71%
- drug-induced phospholipidosis ([12]; 0.3 µM, 48 h): 7.06%
- drug-induced phospholipidosis ([12]; 0.3 µM, 72 h): 7.88%
- drug-induced phospholipidosis ([12]; 0.833333 µM, 24 h): 3.97%
- drug-induced phospholipidosis ([12]; 0.833333 µM, 48 h): 3.72%
- drug-induced phospholipidosis ([12]; 0.833333 µM, 72 h): 7.28%
- drug-induced phospholipidosis ([12]; 3.33333 µM, 24 h): 55.2%
- drug-induced phospholipidosis ([12]; 3.33333 µM, 48 h): 51.9%
- drug-induced phospholipidosis ([12]; 3.33333 µM, 72 h): 40%
- drug-induced phospholipidosis ([12]; 6.66667 µM, 24 h): 83.2%
- drug-induced phospholipidosis ([12]; 6.66667 µM, 48 h): 88.1%
- drug-induced phospholipidosis ([12]; 6.66667 µM, 72 h): 85.2%
- drug-induced phospholipidosis ([12]; 10 µM, 24 h): 94.4%
- drug-induced phospholipidosis ([12]; 10 µM, 48 h): 103%
- drug-induced phospholipidosis ([12]; 10 µM, 72 h): 102%
- drug-induced phospholipidosis ([12]; 30 µM, 24 h): 114%
- drug-induced phospholipidosis ([12]; 30 µM, 48 h): 126%
- morphology score ([13]; 0.1 µM): -0.03
- morphology score ([13]; 0.3 µM): -0.04
- morphology score ([13]; 1 µM): 0.58
- morphology score ([13]; 3 µM): 0.88
- relative viability EC50 [20]: > 10 µM
- phospholipidosis EC50 ([17]; 24 h): 3.84 µM
- phospholipidosis EC50 ([17]; 48 h): 4.5 µM
- phospholipidosis EC50 ([17]; 72 h): 4.56 µM
- SARS-CoV-2 infection rate ([18]; 0.1 µM): 108%
- SARS-CoV-2 infection rate ([18]; 0.3 µM): 96%
- SARS-CoV-2 infection rate ([18]; 1 µM): 74%
- SARS-CoV-2 infection rate ([18]; 3 µM): 32%
